Measured values: ChEMBL document CHEMBL1150977, “A quantitative analysis of kinase inhibitor selectivity” (Nat Biotechnol, 2008)

Target: Serine/threonine-protein kinase Nek7 (Homo sapiens, UniProt Q8TDX7)
Sequence (Q8TDX7 whole entry): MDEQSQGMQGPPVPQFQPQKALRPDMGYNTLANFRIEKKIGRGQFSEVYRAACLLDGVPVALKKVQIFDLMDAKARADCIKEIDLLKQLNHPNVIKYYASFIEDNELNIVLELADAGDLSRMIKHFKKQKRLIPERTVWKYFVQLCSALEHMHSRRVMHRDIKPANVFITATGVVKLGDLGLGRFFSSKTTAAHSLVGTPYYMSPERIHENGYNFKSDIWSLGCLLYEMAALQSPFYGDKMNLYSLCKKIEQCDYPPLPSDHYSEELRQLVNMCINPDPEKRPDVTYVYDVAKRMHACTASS

Which Kd does the source give for `CCOc1cc2ncc(C#N)c(Nc3ccc(F)c(Cl)c3)c2cc1NC(=O)/C=C/CN(C)C` [PELITINIB] here?
The Kd was > 10 µM.

With `Nc1nc(Nc2ccc(S(N)(=O)=O)cc2)nn1C(=O)c1c(F)cccc1F` [JNJ-7706621] as the compound, how does the Kd read?
Its Kd is > 10 µM.

For `Oc1ccc(-c2nc(-c3ccncc3)c(-c3ccc(F)cc3)[nH]2)cc1` [SB-202190], which Kd is on record?
The Kd was > 10 µM.

Which Kd does the source give for `COCC(=O)NC/C=C/c1ccc2ncnc(Nc3ccc(Oc4ccc(C)nc4)c(C)c3)c2c1` [CP-724714] here?
The Kd was > 10 µM.

`NC(=O)c1ccc(-c2nc(-c3ccc4c(c3)OCO4)c(-c3ccccn3)[nH]2)cc1` [SB-431542] was tested. Which Kd did it give?
Its Kd is > 10 µM.

Target: T1, Ephrin type-B receptor 2 (Homo sapiens, UniProt P29323)
T1 sequence (P29323 whole entry): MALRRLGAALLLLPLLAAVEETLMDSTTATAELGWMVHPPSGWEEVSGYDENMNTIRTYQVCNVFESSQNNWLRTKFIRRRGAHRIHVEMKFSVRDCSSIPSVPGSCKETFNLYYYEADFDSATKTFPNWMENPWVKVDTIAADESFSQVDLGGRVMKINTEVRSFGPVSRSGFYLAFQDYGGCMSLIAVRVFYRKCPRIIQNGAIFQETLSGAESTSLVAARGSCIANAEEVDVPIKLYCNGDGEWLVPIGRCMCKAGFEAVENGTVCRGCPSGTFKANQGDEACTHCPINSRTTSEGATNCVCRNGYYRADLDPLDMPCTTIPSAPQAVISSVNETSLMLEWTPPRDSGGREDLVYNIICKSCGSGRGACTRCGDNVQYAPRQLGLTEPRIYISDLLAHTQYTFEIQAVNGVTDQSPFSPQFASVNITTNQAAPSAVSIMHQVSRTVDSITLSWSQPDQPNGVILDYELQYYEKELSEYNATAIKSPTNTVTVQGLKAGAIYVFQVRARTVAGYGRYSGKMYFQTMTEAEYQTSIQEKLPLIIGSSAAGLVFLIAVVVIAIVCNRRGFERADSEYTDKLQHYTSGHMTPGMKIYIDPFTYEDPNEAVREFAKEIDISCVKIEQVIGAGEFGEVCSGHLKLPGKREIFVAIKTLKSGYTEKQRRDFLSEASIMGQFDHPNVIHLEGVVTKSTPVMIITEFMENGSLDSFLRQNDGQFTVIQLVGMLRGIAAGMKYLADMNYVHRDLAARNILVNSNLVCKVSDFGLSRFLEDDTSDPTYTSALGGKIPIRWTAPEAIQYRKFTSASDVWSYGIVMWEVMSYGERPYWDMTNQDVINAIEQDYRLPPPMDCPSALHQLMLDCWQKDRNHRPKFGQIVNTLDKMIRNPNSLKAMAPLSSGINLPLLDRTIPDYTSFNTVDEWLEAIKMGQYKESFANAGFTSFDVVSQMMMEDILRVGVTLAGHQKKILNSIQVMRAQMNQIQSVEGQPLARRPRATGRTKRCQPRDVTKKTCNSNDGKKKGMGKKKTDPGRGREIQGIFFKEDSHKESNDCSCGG

How did the Kd turn out when `CCOc1cc2ncc(C#N)c(Nc3ccc(F)c(Cl)c3)c2cc1NC(=O)/C=C/CN(C)C` [PELITINIB] was run?
The Kd was > 10 µM.

How did the Kd turn out when `Nc1nc(Nc2ccc(S(N)(=O)=O)cc2)nn1C(=O)c1c(F)cccc1F` [JNJ-7706621] was run?
The Kd was > 10 µM.

How did the Kd turn out when `Oc1ccc(-c2nc(-c3ccncc3)c(-c3ccc(F)cc3)[nH]2)cc1` [SB-202190] was run?
The Kd was > 10 µM.

With `COCC(=O)NC/C=C/c1ccc2ncnc(Nc3ccc(Oc4ccc(C)nc4)c(C)c3)c2c1` [CP-724714] as the compound, how does the Kd read?
Its Kd is > 10 µM.

With `NC(=O)c1ccc(-c2nc(-c3ccc4c(c3)OCO4)c(-c3ccccn3)[nH]2)cc1` [SB-431542] as the compound, how does the Kd read?
Its Kd is > 10 µM.

Target: SRSF protein kinase 1 (Homo sapiens, UniProt Q96SB4)
Sequence (Q96SB4 whole entry): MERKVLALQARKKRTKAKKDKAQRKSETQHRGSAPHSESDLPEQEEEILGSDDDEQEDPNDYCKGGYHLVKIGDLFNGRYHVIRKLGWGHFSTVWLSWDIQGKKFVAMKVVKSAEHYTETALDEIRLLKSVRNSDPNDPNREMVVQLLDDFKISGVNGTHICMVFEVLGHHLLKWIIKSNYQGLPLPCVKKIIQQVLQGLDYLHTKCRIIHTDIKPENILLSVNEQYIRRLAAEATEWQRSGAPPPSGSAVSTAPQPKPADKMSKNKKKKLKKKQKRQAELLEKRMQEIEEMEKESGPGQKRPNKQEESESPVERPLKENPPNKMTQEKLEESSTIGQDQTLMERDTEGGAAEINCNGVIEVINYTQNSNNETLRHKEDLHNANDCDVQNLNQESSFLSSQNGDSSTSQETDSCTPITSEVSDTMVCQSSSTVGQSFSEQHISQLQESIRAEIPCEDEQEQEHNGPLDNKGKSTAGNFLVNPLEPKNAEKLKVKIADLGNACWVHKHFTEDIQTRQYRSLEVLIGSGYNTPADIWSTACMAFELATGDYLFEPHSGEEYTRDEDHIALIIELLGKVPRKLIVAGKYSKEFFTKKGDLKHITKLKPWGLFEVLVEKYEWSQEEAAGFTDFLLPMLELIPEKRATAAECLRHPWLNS

For `CCOc1cc2ncc(C#N)c(Nc3ccc(F)c(Cl)c3)c2cc1NC(=O)/C=C/CN(C)C` [PELITINIB], which Kd is on record?
Its Kd is > 10 µM.

For `Oc1ccc(-c2nc(-c3ccncc3)c(-c3ccc(F)cc3)[nH]2)cc1` [SB-202190], which Kd is on record?
Its Kd is > 10 µM.

How did the Kd turn out when `COCC(=O)NC/C=C/c1ccc2ncnc(Nc3ccc(Oc4ccc(C)nc4)c(C)c3)c2c1` [CP-724714] was run?
The Kd was > 10 µM.

How did the Kd turn out when `NC(=O)c1ccc(-c2nc(-c3ccc4c(c3)OCO4)c(-c3ccccn3)[nH]2)cc1` [SB-431542] was run?
Its Kd is > 10 µM.

Target: Serine/threonine-protein kinase PAK 1 (Homo sapiens, UniProt Q13153)
Sequence (Q13153 whole entry): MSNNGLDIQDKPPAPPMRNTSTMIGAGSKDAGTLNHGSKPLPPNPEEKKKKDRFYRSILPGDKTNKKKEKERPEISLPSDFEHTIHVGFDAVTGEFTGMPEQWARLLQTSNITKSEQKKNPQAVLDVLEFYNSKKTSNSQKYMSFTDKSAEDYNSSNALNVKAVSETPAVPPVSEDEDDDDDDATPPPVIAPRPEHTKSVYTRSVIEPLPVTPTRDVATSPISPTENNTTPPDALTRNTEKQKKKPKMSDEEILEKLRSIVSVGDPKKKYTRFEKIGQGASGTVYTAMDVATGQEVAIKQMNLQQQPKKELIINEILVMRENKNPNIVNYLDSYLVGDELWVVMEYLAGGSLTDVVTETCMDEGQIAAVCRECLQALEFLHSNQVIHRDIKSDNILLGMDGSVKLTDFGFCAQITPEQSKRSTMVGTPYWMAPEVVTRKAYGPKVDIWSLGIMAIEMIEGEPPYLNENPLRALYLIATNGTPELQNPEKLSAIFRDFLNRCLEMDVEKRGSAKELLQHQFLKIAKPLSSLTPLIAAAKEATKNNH

With `Nc1nc(Nc2ccc(S(N)(=O)=O)cc2)nn1C(=O)c1c(F)cccc1F` [JNJ-7706621] as the compound, how does the Kd read?
The Kd was > 10 µM.

Which Kd does the source give for `Oc1ccc(-c2nc(-c3ccncc3)c(-c3ccc(F)cc3)[nH]2)cc1` [SB-202190] here?
The Kd was > 10 µM.

With `COCC(=O)NC/C=C/c1ccc2ncnc(Nc3ccc(Oc4ccc(C)nc4)c(C)c3)c2c1` [CP-724714] as the compound, how does the Kd read?
Its Kd is > 10 µM.

Which Kd does the source give for `NC(=O)c1ccc(-c2nc(-c3ccc4c(c3)OCO4)c(-c3ccccn3)[nH]2)cc1` [SB-431542] here?
The Kd was > 10 µM.

Target: T2, Tyrosine-protein kinase JAK3 (Homo sapiens, UniProt P52333)
T2 sequence (P52333 whole entry): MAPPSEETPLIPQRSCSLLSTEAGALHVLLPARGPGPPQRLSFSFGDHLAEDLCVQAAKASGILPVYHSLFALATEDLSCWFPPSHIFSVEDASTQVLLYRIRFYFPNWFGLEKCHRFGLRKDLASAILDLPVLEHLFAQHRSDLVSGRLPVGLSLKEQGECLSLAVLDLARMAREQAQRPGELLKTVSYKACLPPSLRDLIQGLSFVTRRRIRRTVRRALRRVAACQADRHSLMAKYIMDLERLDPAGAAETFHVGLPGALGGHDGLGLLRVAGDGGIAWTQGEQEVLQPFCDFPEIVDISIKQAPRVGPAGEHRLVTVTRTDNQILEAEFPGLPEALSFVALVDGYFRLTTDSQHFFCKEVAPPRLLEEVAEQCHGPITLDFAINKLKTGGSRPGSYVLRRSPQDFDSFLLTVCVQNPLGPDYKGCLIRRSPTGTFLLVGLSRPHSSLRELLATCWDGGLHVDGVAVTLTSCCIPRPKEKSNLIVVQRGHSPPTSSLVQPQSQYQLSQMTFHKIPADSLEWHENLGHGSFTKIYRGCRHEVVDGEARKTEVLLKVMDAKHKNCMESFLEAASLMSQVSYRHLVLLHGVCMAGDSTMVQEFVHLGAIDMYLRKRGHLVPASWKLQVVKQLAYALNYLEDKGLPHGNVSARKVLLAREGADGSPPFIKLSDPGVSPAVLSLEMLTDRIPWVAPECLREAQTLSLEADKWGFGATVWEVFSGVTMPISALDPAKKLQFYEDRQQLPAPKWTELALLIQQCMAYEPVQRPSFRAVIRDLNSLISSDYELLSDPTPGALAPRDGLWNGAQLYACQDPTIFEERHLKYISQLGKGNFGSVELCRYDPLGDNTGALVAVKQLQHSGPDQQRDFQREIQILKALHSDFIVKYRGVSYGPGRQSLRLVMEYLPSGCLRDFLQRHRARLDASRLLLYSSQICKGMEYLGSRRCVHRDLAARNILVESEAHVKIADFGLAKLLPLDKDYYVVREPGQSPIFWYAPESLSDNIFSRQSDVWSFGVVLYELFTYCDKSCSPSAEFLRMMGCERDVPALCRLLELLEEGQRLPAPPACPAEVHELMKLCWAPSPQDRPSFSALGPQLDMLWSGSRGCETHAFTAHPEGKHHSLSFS

With `CCOc1cc2ncc(C#N)c(Nc3ccc(F)c(Cl)c3)c2cc1NC(=O)/C=C/CN(C)C` [PELITINIB] as the compound, how does the Kd read?
Its Kd is 0.025 µM.

`Oc1ccc(-c2nc(-c3ccncc3)c(-c3ccc(F)cc3)[nH]2)cc1` [SB-202190] was tested. Which Kd did it give?
Its Kd is > 10 µM.

With `COCC(=O)NC/C=C/c1ccc2ncnc(Nc3ccc(Oc4ccc(C)nc4)c(C)c3)c2c1` [CP-724714] as the compound, how does the Kd read?
Its Kd is > 10 µM.

For `NC(=O)c1ccc(-c2nc(-c3ccc4c(c3)OCO4)c(-c3ccccn3)[nH]2)cc1` [SB-431542], which Kd is on record?
The Kd was > 10 µM.

Target: Serine/threonine-protein kinase pim-3 (Homo sapiens, UniProt Q86V86)

How did the Kd turn out when `CCOc1cc2ncc(C#N)c(Nc3ccc(F)c(Cl)c3)c2cc1NC(=O)/C=C/CN(C)C` [PELITINIB] was run?
Its Kd is > 10 µM.

For `Nc1nc(Nc2ccc(S(N)(=O)=O)cc2)nn1C(=O)c1c(F)cccc1F` [JNJ-7706621], which Kd is on record?
Its Kd is > 10 µM.

How did the Kd turn out when `Oc1ccc(-c2nc(-c3ccncc3)c(-c3ccc(F)cc3)[nH]2)cc1` [SB-202190] was run?
The Kd was > 10 µM.

Which Kd does the source give for `COCC(=O)NC/C=C/c1ccc2ncnc(Nc3ccc(Oc4ccc(C)nc4)c(C)c3)c2c1` [CP-724714] here?
The Kd was > 10 µM.

`NC(=O)c1ccc(-c2nc(-c3ccc4c(c3)OCO4)c(-c3ccccn3)[nH]2)cc1` [SB-431542] was tested. Which Kd did it give?
Its Kd is > 10 µM.
